According to US6681132B1, “Sodium magnetic reasonance imaging used in diagnosing tumors and assessing response to treatment” (The Trustees of Columbia University in the City of New York, priority 1999, dated 2004):

Columns and labels:
PC3 tumors = assay: Inversion recovery (IR) weighted sodium MRI of PC3 tumors after chemotherapy; assay type: in vivo, nude mice; details: for increase in maximum IR sodium image intensity: PC3 tumors, 24 hrs vs predrug, 25 msec inversion time, normalized to brighter phantom, taxotere 1.5 mg, VP-16 0.2-0.4 mg, femoral vein
Procedure: (§1) (A) Chemotherapy and inversion recovery MR imaging—Following acquisition of control images, antineoplastics were administered. All IR images and SQ images were normalized to the brightest phantom within each slice (i.e., 40% Ficoll for IR and 30% Ficoll for SQ respectively). All tumors were analyzed by examining changes in intensity at the brightest—usually central area—of the tumor image. It was clearly identifiable both from manual examination with line profiles or from the pixel density histogram derived from a region of interest analysis. […] Results from PC3 tumors (solid lines, filled circles) and DU145 tumors (dashed lines, open circles) are plotted together. In two experiments with control saline injections (not shown in graphs), there were small decreases of 5.5% (NS) at 24 hours and 3.5% (NS) at 48 hours.
In vivo detection of antineoplastic effects using weighted sodium MR images—Examination of the effect of chemotherapy on the IR sodium image in a series of PC3 and DU145 tumors was studied. Control and post-therapy images were acquired in sixteen mice, and tumors in two additional mice had images reacquired at both 24 and 48 hrs following control saline injection. […] Results are plotted as change in maximum image intensity for each drug separately (top panel, FIG. 4, taxotere; bottom panel, FIG. 4, VP-16 etoposide). Elevation is significant for each drug taken separately for the more numerous PC3 tumor experiments (taxotere, 32% increase at p<0.001, n=5; VP-16, 38% increase at p<0.0005, n=7); and is also significant for all PC3 experiments measured at 48 hrs (28%, p<0.05, n=11).
All imaging experiments were performed on a high field (4.23 Tesla) whole body MRI system. A small quadrature birdcage radiofrequency coil (50 mm ID, Morris Inc.) and a high strength gradient insert coil (30 mT/m, Bruker model G-33) were employed. Acquisition parameters were TR=100 msec, TE=5.6 msec, FOV=40 mm, slice thickness=2.5 mm, flip angle=90° , inversion time=25 msec, acquisition matrix was 64×64×8. The two phantoms on all animal images shown were identical (P1-30% Ficoll in 200 mM NaCl; P2-40% Ficoll in 200 mM NaCl). All animal images were normalized to the brighter phantom (e.g. P1 on the SQ, P2 on the IR). Animals were positioned in a specially designed animal holder, allowing for reproducible tumor placement.
Two adjacent slices from a 3 dimensional gradient echo image set of a PC3 tumor are shown before (FIGS. 5, A&B) and 48 hrs after (FIGS. 5, C&D) injection of 1.5 mg taxotere to the nude mouse. […] The second example illustrates the contribution of this technique at its limit of resolution.
Inversion recovery images (25 msec inversion time) were acquired for 16 nude mouse tumors following chemotherapy. […]

PC3 and DU145 tumors = assay: IR sodium MRI, PC3 and DU145 tumors taken as a whole; assay type: in vivo, nude mice; details: PC3 and DU145 tumors plotted together
Procedure: as §1, with “In two experiments with control saline injections (not shown in graphs), there were small decreases of 5.5% (NS) at 24 hours and 3.5% (NS) at 48 hours.” left out
In vivo detection of antineoplastic effects using weighted sodium MR images—Examination of the effect of chemotherapy on the IR sodium image in a series of PC3 and DU145 tumors was studied. […] Elevation is significant for each drug taken separately for the more numerous PC3 tumor experiments (taxotere, 32% increase at p<0.001, n=5; VP-16, 38% increase at p<0.0005, n=7); and is also significant for all PC3 experiments measured at 48 hrs (28%, p<0.05, n=11). […]
The effect of chemotherapy on the IR sodium image intensity in PC3 and DU145 tumors was consistent with the culture results. […] These values were calculated from human doses using standard equations which convert weight to surface area for small mammals. […]

LNCaP = assay: APO-BRDU endlabelling of DNA fragmentation, flow cytometry, LNCaP; assay type: cell-based, human
Procedure: (§2) At the end of the treatment period, cells are trypsinized, resuspended in media, resuspended in PBS, resuspended in iced cold methanol free formaldehyde (1% in PBS) for 15 min, resuspended in 70% ethanol and stored at −20° C. until all samples from a given experiment are ready to run (19, 23). Using a very powerful endlabelling technique (APO-BRDU, Phoenix Flow Systems, California) which gives a dynamic range of fluorescence intensities of up to 1000 fold comparing control cells to cells with advanced DNA fragmentation. Results have been confirmed using positive and negative controls provided by Phoenix Flow Systems, camptothecin treated PC3 cells, and a SNAP treated myocyte line.
(§3) Fixed cells are labeled following kit instructions (two washes with kit buffer, overnight endlabelling, two resuspensions in a rinse buffer, exposure to fluorescent antibody and treatment with propidium iodide and RNAase. Flow cytometry is performed on a Becton/Dickenson FACStar II. Individual fluorescence intensity values for 10,000 cells are obtained for each sample.
To specifically assay DNA fragmentation, a downstream response to apoptosis, uses of a terminal deoxynucleotidyl transferase labeling approach whereby fluorescent moieties are enzymatically attached to all DNA fragment ends. (FIG. 3a) The technique which was used, has a dynamic range of approximately ×1000 (FIG. 2). This allows for making very quantitative comparisons of DNA fragmentation on a cell to cell basis using flow cytometry, and to further examine the relative drug sensitivity profiles of the 3 cell lines.

PC3 cell = assay: APO-BRDU endlabelling of DNA fragmentation, flow cytometry, PC3; assay type: cell-based, human
Procedure: as §2, §3
To specifically assay DNA fragmentation, a downstream response to apoptosis, uses of a terminal deoxynucleotidyl transferase labeling approach whereby fluorescent moieties are enzymatically attached to all DNA fragment ends. (FIG. 3a) The technique which was used, has a dynamic range of approximately ×1000 (FIG. 2). […]

COc1cc([C@@H]2c3cc4c(cc3[C@@H](O[C@@H]3O[C@@H]5CO[C@@H](C)O[C@H]5[C@H](O)[C@H]3O)[C@H]3COC(=O)[C@H]23)OCO4)cc(OC)c1O [VP-16, etoposide]
increase in maximum IR sodium image intensity (PC3 tumors): 38%
detectability of tumor on IR image (PC3 tumors; elongated PC3 tumor, 24 hr after injection of 0.3 mg): readily apparent following chemotherapy
IR image intensity at 24 hrs versus control (graphs) (PC3 and DU145 tumors): increased image intensity
DNA fragmentation response (LNCaP; 24 hrs): almost no response
DNA fragmentation response (LNCaP; 44 hrs): significant DNA fragmentation
time course of DNA fragmentation (PC3 cell): continues to develop beyond the 24-hr sample point

CC(=O)O[C@@]12CO[C@@H]1C[C@H](O)[C@@]1(C)C(=O)[C@H](O)C3=C(C)[C@@H](OC(=O)[C@H](O)[C@@H](NC(=O)OC(C)(C)C)c4ccccc4)C[C@@](O)([C@@H](OC(=O)c4ccccc4)[C@H]21)C3(C)C [taxotere]
spatial change of tumor on inversion recovery image (PC3 tumors; PC3 tumor, 48 hrs after injection of 1.5 mg): clear spatial broadening of the tumor
increase in maximum IR sodium image intensity (PC3 tumors): 32%
IR image intensity at 24 hrs versus control (graphs) (PC3 and DU145 tumors): increased image intensity
DNA fragmentation response (LNCaP; 24 hrs): almost no response
DNA fragmentation response (LNCaP; 44 hrs): significant DNA fragmentation
time course of DNA fragmentation (PC3 cell): continues to develop beyond the 24-hr sample point
